Source: US20050191283A1, “Methods of treating NFAT-related disorders” (priority 2003, published 2005)
Entries after “also recorded” stand apart in the source; their conditions may differ.

What was measured:
[1] = test system: IFN-γ expression in UCB T lymphocytes; experiment: Intracellular IFN-γ staining in gated CD3+ cells of UCB MNC; type: cell-based, human; settings: for average percentage of T cells producing IFN-γ: whole UCB MNC
Protocol: (§1) Human umbilical cord blood from full-term deliveries by vaginal or caesarean sections and adult peripheral blood from healthy donors was collected according to guidelines by the Institutional Review Board at University Hospitals of Cleveland. Mononuclear cells (MNC) were isolated by gradient centrifugation, as previously described (6) and used immediately fresh.
(§2) Total MNC were stimulated in bulk culture as previously described (6). Briefly, 2×10^6 cells/ml were stimulated with 2 μg/ml of concanavalin A (ConA) (Sigma Chemical Co, St Louis, Mo.) in complete RPMI medium (Gibco BRL, Gaithersburg, Md.), containing 10% fetal bovine serum (Gibco BRL), 1 mM Sodium-pyruvate, 0.1 mM nonessential amino acids, 10 mM HEPES and 58 μM 2-mercaptoethanol (Sigma Chemical Co), in presence or absence of the manufacturer's recommended concentration of 1 μg/ml of cyclosporin A (CsA) (Sigma Chemical Co), as previously described (7). Where specified, IFN-γ (Roche, Indianapolis, Ind.) was added at indicated concentrations, or neutralizing anti-IFN-γ antibody (R&D Systems, Minneapolis, Minn.) was added at a concentration of 0.25-2 μg/ml. Purified T cells were stimulated as described (26), with plate-bound anti-CD3 (1 μg/ml) and soluble anti-CD28 (5 μg/ml) monoclonal antibodies. Elispot assays were performed as previously described (27). Briefly, ImmunoSpot plates M200 (Cellular Technology Limited, Cleveland Ohio) were coated with capture antibody for IFN-γ M700A-E (2 μg/ml; Endogen, Woburn, Mass.), washed and MNC were plated in complete RPMI medium with 5% ABO serum (Gemini Bioproducts, Calmasas, Calif.)+1% L-glutamine, at 3×10^5 per well. Cells were stimulated with irradiated 3×10^5 T-cell-depleted MNC from a healthy adult or cord blood. T cells were depleted with RosetteSep (StemCell Technologies, Vancouver, Canada), according to manufacturer's directions. After 24 h of stimulation, plates were washed and incubated over night with secondary biotinylated detection antibodies against IFN-γ M701 (0.5 μg/ml; Endogen, Woburn, Mass.). Streptavidin-HRP conjugate (Dako Corp., Carpenteria Calif.) was added and the spots were visualized using the HRP-substrate AEC (Pierce Pharmaceuticals, Rockford Ill.), and subjected to image analysis on a Series 1 ImmunoSpot Image Analyzer (Cellular Technology, Cleveland, Ohio) specifically designed for automated evaluation of ELISPOTs.
MNC from UCB were depleted of monocytes by using monoclonal antibody against CD11b (Pharmingen), followed by anti-IgG magnetic bead (Dynal) depletion as above, or by using anti-CD14 microbeads (Miltenyi Biotech Inc., Auburn, Calif.) and AutoMACS (Miltenyi Biotech Inc.), according to manufacturer's protocol.
Intracellular IFN-γ staining was performed as described previously (6, 7). […] 1×10^6 cells were stained for 30 minutes with the following antibodies: anti-IFN-γ-FITC or -PE (R&D Systems), anti-CD3-APC (Pharmingen), and anti-CD69-PE (Pharmingen) or -PerCP (Becton Dickinson, San Jose, Calif.) and the corresponding isotype controls (Pharmingen, Becton Dickinson). 20,000-80,000 events were acquired on a calibrated Elite ESP flow cytometer (Coulter, Miami, Fla.) and data were analyzed with WinList software (Verity Software House Inc, Topsham, Minn.). For intracellular staining of NFATc2, the same monoclonal antibody clone as used in immunoblotting was custom FITC-conjugated (Transduction Laboratories) and used at a titrated concentration of 1 μg/10^6 cells.

[2] = test system: IFN-γ expression in purified UCB T cells; experiment: Intracellular IFN-γ staining in purified UCB T cells; type: cell-based, human
Protocol: as §1
(§3) Total MNC were stimulated in bulk culture as previously described (6). Briefly, 2×10^6 cells/ml were stimulated with 2 μg/ml of concanavalin A (ConA) (Sigma Chemical Co, St Louis, Mo.) in complete RPMI medium (Gibco BRL, Gaithersburg, Md.), containing 10% fetal bovine serum (Gibco BRL), 1 mM Sodium-pyruvate, 0.1 mM nonessential amino acids, 10 mM HEPES and 58 μM 2-mercaptoethanol (Sigma Chemical Co), in presence or absence of the manufacturer's recommended concentration of 1 μg/ml of cyclosporin A (CsA) (Sigma Chemical Co), as previously described (7). Where specified, IFN-γ (Roche, Indianapolis, Ind.) was added at indicated concentrations, or neutralizing anti-IFN-γ antibody (R&D Systems, Minneapolis, Minn.) was added at a concentration of 0.25-2 μg/ml. […]
(§4) Intracellular IFN-γ staining was performed as described previously (6, 7). […] 20,000-80,000 events were acquired on a calibrated Elite ESP flow cytometer (Coulter, Miami, Fla.) and data were analyzed with WinList software (Verity Software House Inc, Topsham, Minn.). […]

[3] = test system: IFN-γ expression in purified adult T cells; experiment: Intracellular IFN-γ staining in purified adult T cells; type: cell-based, human; settings: anti-CD3/CD28 24 h, exogenous IFN-γ 100 U/ml
Protocol: as §1, §3, §4

[4] = test system: NFATc2 expression in UCB T lymphocytes; experiment: NFATc2 protein expression by intracellular flow cytometry in gated CD3+ cells of UCB MNC; type: cell-based, human; settings: for NFATc2 expression (dual staining for NFATc2 and IFN-γ): ConA alone or ConA + 100 U/ml IFN-γ
Protocol: as §1, §2
as §4, with “7). Briefly, MNC were stimulated for the indicated time points, for the last 6-8 h in the presence of 5 μg/ml of Brefeldin A (Sigma Chemical Co), and permeabilized.” for “7).”

[5] = test system: NFATc2 expression in adult T lymphocytes; experiment: NFATc2 protein expression by intracellular flow cytometry in gated CD3+ cells of stimulated adult MNC; type: cell-based, human; settings: adult MNC stimulated 24 h, exogenous IFN-γ 100 U/ml
Protocol: as §1, §3, §4

[6] = test system: IFN-γ expression by UCB MNC; settings: exogenous IL-12 added to the stimulation conditions; cited from earlier work
[7] = experiment 1, whole UCB MNC, 24 h
[8] = experiment 2, whole UCB MNC, 24 h
[9] = experiment 3, whole UCB MNC, 24 h
[10] = experiment 4, whole UCB MNC, 24 h

C[C@H]1CCC/C=C/[C@@H]2C[C@H](O)C[C@H]2[C@H](O)/C=C/C(=O)O1 [Brefeldin A, reference compound]
upregulation of IFN-γ in UCB T cells ([1]; UCB MNC, ConA ± IFN-γ 100 U/ml, BFA added immediately and for the whole stimulation (BFA 24 h)): no upregulation of IFN-γ could be observed

IFN-γ: IFN-γ (Roche, Indianapolis, Ind.) added exogenously during stimulation
IFN-γ rescue effect ([2]; ConA, IFN-γ added): no IFN-γ rescue effect was observed
IFN-γ expression ([2]; anti-CD3/CD28 24 h, exogenous IFN-γ 100 U/ml): could not be rescued
IFN-γ-mediated rescue effect ([1]; UCB MNC depleted of B cells and NK cells): did not result in a significant loss of the IFN-γ-mediated rescue effect
average percentage of IFN-γ producing T cells ([1]; UCB MNC depleted of monocytes prior to stimulation, ConA + IFN-γ, n=4): 1.0%
percentages of IFN-γ-expressing T lymphocytes ([1]; UCB MNC, ConA 24 h, exogenous IFN-γ 100 U/ml): rose close to that measured in adult T lymphocytes
lowest dose of exogenous IFN-γ with effective IFN-γ rescue ([1]; UCB MNC, ConA stimulation, dose titrated down): 50 U/ml
IFN-γ expression ([1]; UCB MNC, no stimulation, IFN-γ alone 100 U/ml): did not stimulate IFN-γ expression
percentages of CD3+ cells positive for IFN-γ staining ([1]; experiment 1, UCB MNC depleted of CD11b, 24 h): 0.89%
percentages of CD3+ cells positive for IFN-γ staining [1, 7]: 1.38%
percentages of CD3+ cells positive for IFN-γ staining ([1]; experiment 2, UCB MNC depleted of CD11b, 24 h): 0.92%
percentages of CD3+ cells positive for IFN-γ staining [1, 8]: 1.41%
percentages of CD3+ cells positive for IFN-γ staining ([1]; experiment 3, UCB MNC depleted of CD11b, 24 h): 1.30%
percentages of CD3+ cells positive for IFN-γ staining [1, 9]: 1.74%
percentages of CD3+ cells positive for IFN-γ staining ([1]; experiment 4, UCB MNC depleted of CD14, 24 h): 1.07%
percentages of CD3+ cells positive for IFN-γ staining [1, 10]: 1.83%
average percentage of T cells producing IFN-γ ([1]; n=4): 1.6%
IFN-γ expression [3]: no increase in IFN-γ expression was observed
NFATc2 protein expression ([4]; ConA 16 h, added IFN-γ 10-1,000 U/ml, gated CD3+ cells): increased in a dose dependent manner
NFATc2 expression (dual staining for NFATc2 and IFN-γ) [4]: strong increases of NFATc2 expression
NFATc2 levels ([4]; absence of stimulation, IFN-γ alone 100 U/ml): intermediate between unstimulated and stimulated T lymphocytes; also recorded: only slightly increased NFATc2 expression
NFATc2 expression [5]: further upregulation of NFATc2

TNF-A
upregulation of IFN-γ expression ([1]; UCB MNC, ConA 24 h, TNF-A (1 ng/ml) or IL-2 added in place of IFN-γ): did not result in upregulation of IFN-γ expression

concanavalin A [ConA, reference compound]
IFN-γ expression ([1]; UCB MNC, ConA alone): only a slight increase in IFN-γ expression
percentages of CD3+ cells positive for IFN-γ staining [1, 7]: 0.96%
percentages of CD3+ cells positive for IFN-γ staining [1, 8]: 0.78%
percentages of CD3+ cells positive for IFN-γ staining [1, 9]: 0.96%
percentages of CD3+ cells positive for IFN-γ staining [1, 10]: 1.05%
average percentage of T cells producing IFN-γ ([1]; n=4): 0.9%
NFATc2 expression (dual staining for NFATc2 and IFN-γ) [4]: increase in NFATc2 upregulation

B1: IL-12: exogenous cytokine, literature result (ref 44) (protein, UniProt P29459 23-219; P29460 23-328, looked up)
Interleukin-12 subunit alpha: RNLPVATPDPGMFPCLHHSQNLLRAVSNMLQKARQTLEFYPCTSEEIDHEDITKDKTSTVEACLPLELTKNESCLNSRETSFITNGSCLASRKTSFMMALCLSSIYEDLKMYQVEFKTMNAKLLMDPKRQIFLDQNMLAVIDELMQALNFNSETVPQKSSLEEPDFYKTKIKLCILLHAFRIRAVTIDRVMSYLNAS
Interleukin-12 subunit beta: IWELKKDVYVVELDWYPDAPGEMVVLTCDTPEEDGITWTLDQSSEVLGSGKTLTIQVKEFGDAGQYTCHKGGEVLSHSLLLLHKKEDGIWSTDILKDQKEPKNKTFLRCEAKNYSGRFTCWWLTTISTDLTFSVKSSRGSSDPQGVTCGAATLSAERVRGDNKEYEYSVECQEDSACPAAEESLPIEVMVDAVHKLKYENYTSSFFIRDIIKPDPPKNLQLKPLKNSRQVEVSWEYPDTWSTPHSYFSLTFCVQVQGKSKREKKDRVFTDKTSATVICRKNASISVRAQDRYYSSSWSEWASVPCS
IFN-γ expression by UCB MNC [6]: could be increased
